Experimental findings from patent US10280169B2, “Biaryl bruton's tyrosine kinase inhibitors” (BIOGEN MA INC., priority 2013, dated 2019) are described below.

SMILES strings stand for the structures.

In one assay the target is T1, BTK (Homo sapiens, UniProt Q06187).
T1 construct: purchased Upstate 14-552
In words: In vitro BTK kinase assay: BTK-POLYGAT-LS assay. Type of assay: biochemical. To be noted: 10 uM ATP, read-out: IC50 (10 uMATP).

Another assay concerns the target T2, pBTK (Homo sapiens, UniProt Q06187).
T2 construct: Heparinized venous blood was purchased from Bioreclamation, Inc. or SeraCare Life Sciences; tissue Bioreclamation, Inc. or SeraCare Life Sciences; host or cells: heparinized venous whole blood
In words: In vitro PD assay in whole blood (pBTK assay). Format: cell-based. To be noted: 30 min at 37° C. How it is done: Heparinized venous blood was purchased from Bioreclamation, Inc. or SeraCare Life Sciences and shipped overnight. Whole blood was aliquoted into 96-well plate and “spiked” with serial dilutions of test compound in DMSO or with DMSO without drug. The final concentration of DMSO in all wells was 0.1%. The plate was incubated at 37° C. for 30 min. Lysis buffer containing protease and phosphatase inhibitors was added to the drug-containing samples and one of the DMSO-only samples (+PPi, high control), while lysis buffer containing protease inhibitors was added to the other DMSO-only samples (−PPi, low control). All of the lysed whole blood samples were subjected to the total BTK capture and phosphotyrosine detection method described in Example 30. ECL values were graphed in Prism and a best-fit curve with restrictions on the maximum and minimum defined by the +PPi high and −PPi low controls was used to estimate the test compound concentration that results in 50% inhibition of ECL signal by interpolation.
In some instances where a compound tested has activity “D”, other structurally similar compounds beyond the measurable limits of the assay are not included in Table 2.

T1 sequence (Q06187 whole entry): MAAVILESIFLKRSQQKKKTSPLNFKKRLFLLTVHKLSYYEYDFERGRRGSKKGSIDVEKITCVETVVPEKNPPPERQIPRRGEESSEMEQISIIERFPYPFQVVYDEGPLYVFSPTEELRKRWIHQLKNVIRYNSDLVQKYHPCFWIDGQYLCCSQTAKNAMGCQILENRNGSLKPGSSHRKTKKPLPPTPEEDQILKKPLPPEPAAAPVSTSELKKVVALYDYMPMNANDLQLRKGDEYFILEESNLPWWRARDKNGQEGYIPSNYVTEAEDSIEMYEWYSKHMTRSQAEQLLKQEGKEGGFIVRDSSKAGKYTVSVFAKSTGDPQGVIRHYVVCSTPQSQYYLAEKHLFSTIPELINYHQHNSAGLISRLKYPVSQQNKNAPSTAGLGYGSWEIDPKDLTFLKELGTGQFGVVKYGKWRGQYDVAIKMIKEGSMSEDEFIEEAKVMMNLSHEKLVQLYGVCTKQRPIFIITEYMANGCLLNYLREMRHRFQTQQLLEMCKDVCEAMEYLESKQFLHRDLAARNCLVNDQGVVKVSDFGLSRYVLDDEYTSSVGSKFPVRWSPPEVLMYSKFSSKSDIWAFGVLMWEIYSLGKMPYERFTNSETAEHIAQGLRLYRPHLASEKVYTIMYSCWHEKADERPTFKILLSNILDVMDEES
T2 sequence (Q06187 whole entry): as above

As for `CC(C)(C)c1csc(C(=O)NC2CCCc3cc(-c4ncnc5[nH]ncc45)ccc32)n1` (stereo in doubt) [Example I-100, (R)—N-(6-(1H-pyrazolo[3,4-d]pyrimidin-4-yl)-1,2,3,4-tetrahydronaphthalen-1-yl)-4-(tert-butyl)thiazole-2-carboxamide], the results for the IC50 on BTK and against pBTK were below 0.01 µM and 1.5 to 10 µM, respectively.
In the same order, the values of `Cc1cc(-c2ncnc3[nH]ccc23)ccc1CNC(=O)c1ccc(C(C)(C)C)cn1` [Example I-1, 5-(tert-butyl)-N-(2-methyl-4-(7H-pyrrolo[2,3-d]pyrimidin-4-yl)benzyl)picolinamide] are below 0.01 µM and 1.5 to 10 µM.
Turning to `Cc1cc(-c2ncnc3[nH]ccc23)ccc1CNC(=O)c1ccc(C(C)(C)C)cc1` [Example I-2, 4-(tert-butyl)-N-(2-methyl-4-(7H-pyrrolo[2,3-d]pyrimidin-4-yl)benzyl)benzamide], the half-inhibitory concentration (IC50) (as a rule, the point on the concentration scale where inhibition reaches its midpoint) is below 0.01 µM at BTK and 1.5 to 10 µM against pBTK.
Take `O=C(NC1CCCc2cc(-c3ncnc4[nH]ccc34)ccc21)c1cc2c(s1)CCCC2` (stereo not shown) [Example I-16, N-(6-(7H-pyrrolo[2,3-d]pyrimidin-4-yl)-1,2,3,4-tetrahydronaphthalen-1-yl)-4,5,6,7-tetrahydrobenzo[b]thiophene-2-carboxamide]: the results for the IC50 on BTK and against pBTK were 0.01 to 0.099 µM and 1.5 to 10 µM, respectively.
Regarding `Cc1cc(-c2ncnc3cc(C4=CCN(C(=O)N(C)C)CC4)[nH]c23)ccc1CNC(=O)c1ncc(C(C)(C)C)s1` [Example I-18, 5-(tert-butyl)-N-(4-(6-(1-(dimethylcarbamoyl)-1,2,3,6-tetrahydropyridin-4-yl)-5H-pyrrolo[3,2-d]pyrimidin-4-yl)-2-methylbenzyl)thiazole-2-carboxamide], the IC50 is below 0.01 µM at BTK and below 0.5 µM on pBTK.
As for `Cc1cc(-c2ncnc3[nH]c(C4=CCN(C(=O)N(C)C)CC4)cc23)ccc1CNC(=O)c1cnc(C(C)(C)C)s1` [Example I-19, 2-(tert-butyl)-N-(4-(6-(1-(dimethylcarbamoyl)-1,2,3,6-tetrahydropyridin-4-yl)-7H-pyrrolo[2,3-d]pyrimidin-4-yl)-2-methylbenzyl)thiazole-5-carboxamide], the IC50 on BTK was below 0.01 µM; against pBTK, below 0.5 µM.
`Cc1cc(-c2ncnc3[nH]c(-c4ccc(C(=O)N5CCOCC5)cc4)cc23)ccc1CNC(=O)c1cnc(C(C)(C)C)s1` [Example I-20]: the IC50 on BTK is below 0.01 µM; against pBTK, below 0.5 µM.
As for `Cc1cc(-c2ncnc3[nH]c(C4=CCS(=O)(=O)CC4)cc23)ccc1CNC(=O)c1cnc(C(C)(C)C)s1` [Example I-21, 2-(tert-butyl)-N-(4-(6-(1,1-dioxido-3,6-dihydro-2H-thiopyran-4-yl)-7H-pyrrolo[2,3-d]pyrimidin-4-yl)-2-methylbenzyl)thiazole-5-carboxamide], the IC50 is below 0.01 µM on BTK and below 0.5 µM at pBTK.
Take `Cc1cc(-c2ncnc3cc(C4=CCS(=O)(=O)CC4)[nH]c23)ccc1CNC(=O)c1cnc(C(C)(C)C)s1` [Example I-22, 2-(tert-butyl)-N-(4-(6-(1,1-dioxido-3,6-dihydro-2H-thiopyran-4-yl)-5H-pyrrolo[3,2-d]pyrimidin-4-yl)-2-methylbenzyl)thiazole-5-carboxamide]: the 50% inhibitory concentration (IC50) at BTK was below 0.01 µM; against pBTK, below 0.5 µM.
Turning to `Cc1cc(-c2ncnc3cc(C4CCN(C)CC4)[nH]c23)ccc1CNC(=O)c1cnc(C(C)(C)C)s1` [Example I-25, 2-(tert-butyl)-N-(2-methyl-4-(6-(1-methylpiperidin-4-yl)-5H-pyrrolo[3,2-d]pyrimidin-4-yl)benzyl)thiazole-5-carboxamide], the IC50 was below 0.01 µM at BTK and 0.5 to 1.5 µM on pBTK.
For `Cc1cc(-c2ncnc3[nH]c(-c4cnn(C)c4)cc23)ccc1CNC(=O)c1cnc(C(C)(C)C)s1` [Example I-26, 2-(tert-butyl)-N-(2-methyl-4-(6-(1-methyl-1H-pyrazol-4-yl)-7H-pyrrolo[2,3-d]pyrimidin-4-yl)benzyl)thiazole-5-carboxamide], in that order: below 0.01 µM and below 0.5 µM.
Consider `CC(C)(C)c1ncc(C(=O)NC(CO)c2ccc(-c3ncnc4[nH]c(C5=CCS(=O)(=O)CC5)cc34)cc2)s1` (stereo not shown) [Example I-30, 2-(tert-butyl)-N-(1-(4-(6-(1,1-dioxido-3,6-dihydro-2H-thiopyran-4-yl)-7H-pyrrolo[2,3-d]pyrimidin-4-yl)phenyl)-2-hydroxyethyl)thiazole-5-carboxamide], for which the concentration for half-maximal inhibition (IC50) on BTK was below 0.01 µM; at pBTK, 1.5 to 10 µM.
For `Cc1cc(-c2ncnc3[nH]c(-c4cnn(C)c4)cc23)ccc1C(CO)NC(=O)c1cnc(C(C)(C)C)s1` (stereo not shown) [Example I-31, 2-(tert-butyl)-N-(2-hydroxy-1-(2-methyl-4-(6-(1-methyl-1H-pyrazol-4-yl)-7H-pyrrolo[2,3-d]pyrimidin-4-yl)phenyl)ethyl)thiazole-5-carboxamide], in that order: below 0.01 µM and 0.5 to 1.5 µM.
Turning to `Cc1cc(-c2ncnc3[nH]c(-c4cnn(C)c4)cc23)ccc1C(CO)NC(=O)c1cc2c(s1)CCOC2` (stereo not shown) [Example I-32, N-(2-hydroxy-1-(2-methyl-4-(6-(1-methyl-1H-pyrazol-4-yl)-7H-pyrrolo[2,3-d]pyrimidin-4-yl)phenyl)ethyl)-6,7-dihydro-4H-thieno[3,2-c]pyran-2-carboxamide], the half-maximal inhibitory concentration (IC50) on BTK is below 0.01 µM; against pBTK, below 0.5 µM.
`Cn1cc(-c2cc3c(-c4ccc5c(c4)CCCC5NC(=O)c4cnc(C(C)(C)C)s4)ncnc3[nH]2)cn1` (stereo not shown) [Example I-34, 2-(tert-butyl)-N-(6-(6-(1-methyl-1H-pyrazol-4-yl)-7H-pyrrolo[2,3-d]pyrimidin-4-yl)-1,2,3,4-tetrahydronaphthalen-1-yl)thiazole-5-carboxamide]: the half-maximal inhibitory concentration (IC50) was below 0.01 µM at BTK and below 0.5 µM at pBTK.
In the same order, the values of `Cn1cc(-c2cc3c(-c4ccc5c(c4)CCCC5NC(=O)c4cc5c(s4)CCOC5)ncnc3[nH]2)cn1` (stereo not shown) [Example I-35, N-(6-(6-(1-methyl-1H-pyrazol-4-yl)-7H-pyrrolo[2,3-d]pyrimidin-4-yl)-1,2,3,4-tetrahydronaphthalen-1-yl)-6,7-dihydro-4H-thieno[3,2-c]pyran-2-carboxamide] are below 0.01 µM and 0.5 to 1.5 µM.
Regarding `Cc1cc(-c2ncnc3cc(-c4cnn(C)c4)[nH]c23)ccc1CNC(=O)c1ncc(C(C)(C)C)s1` [Example I-36], the IC50 on BTK is below 0.01 µM; at pBTK, below 0.5 µM.
For `Cc1cc(-c2ncnc3cc(-c4cn(C)nc4C)[nH]c23)ccc1CNC(=O)c1cnc(C(C)(C)C)s1` [Example I-39, 2-(tert-butyl)-N-(4-(6-(1,3-dimethyl-1H-pyrazol-4-yl)-5H-pyrrolo[3,2-d]pyrimidin-4-yl)-2-methylbenzyl)thiazole-5-carboxamide], the IC50 at BTK was below 0.01 µM; at pBTK, below 0.5 µM.
In the case of `Cn1cc(-c2cc3c(-c4ccc5c(c4)CCCCC5NC(=O)N4CC(OC(C)(C)C)C4)ncnc3[nH]2)cn1` (stereo not shown) [Example I-164, 3-(tert-butoxy)-N-(2-(6-(1-methyl-1H-pyrazol-4-yl)-7H-pyrrolo[2,3-d]pyrimidin-4-yl)-6,7,8,9-tetrahydro-5H-benzo[7]annulen-5-yl)azetidine-1-carboxamide], the 50% inhibitory concentration (IC50) on BTK was below 0.01 µM.
